Patent publication US20260000668A1 (priority 2021, published 2026)
Values after ≈ are worked out from the molar mass of the structure shown. Read-outs that look alike come from different tables or passages of the source.

Assays:
[1] = system: SARS-Related Coronavirus 2 Isolate USA-WA1/2020; assay type: cell-based, SARS-COV-2; conditions: treatment 2 hours pre-infection; for Mean Log10 Reduction: Vero E6, MOI=0.1, 2 days, vs untreated control

Structure (SMILES) | Mean Log10 Reduction ([1]; 10 μM) | solubility (physchem; organic solvent or mixture) | Mean Log10 Reduction ([1]; 1 μM) | Mean Log10 Reduction ([1]; 2 μM) | Mean Log10 Reduction ([1]; 4 μM) | Mean Log10 Reduction ([1]; 8 μM) | antiviral activity against SARS-COV-2 ([1]; 1-8 μM, Vero E6) | solubility (physchem; water)
CCC(CC)COC(=O)[C@H](C)N[P@](=O)(OC[C@H]1O[C@@](C#N)(c2ccc3c(N)ncnn23)[C@H](O)[C@@H]1O)Oc1ccccc1 [Remdesivir, reference compound] | 5.72 Log10 | 100 mg/mL (≈ 166 mM) |  |  |  |  |  | 
CN1CCN(CCCc2ccc(C(c3ccccc3)C34CC5CC(CC(C5)C3)C4)cc2)CC1 (stereo not drawn) [AV1066, 1-Methyl-4-[3-[4-(phenyltricyclo[3.3.1.1^3,7]dec-1-ylmethyl)phenyl]propyl]piperazine] |  | 21 mg/mL (≈ 47.4 mM) | 0.00 Log10 | 0.10 Log10 | 1.33 Log10 | 4.89 Log10 | exhibited antiviral activity against SARS-COV-2 in a dose dependent manner | 4 mg/mL (≈ 9.04 mM)
